These are literature values, as cited in US20240398831A1, “COMPOSITIONS COMPRISING SMALL MOLECULE REGULATORS OF TUMOR IMMUNITY AND METHODS OF USING SAME” (Duke University, priority 2021, published 2024).

In this series the test system is melanoma. The settings on record: human, in vivo; cited from earlier work.

`CC/C(=C(\c1ccccc1)c1ccc(OCCN(C)C)cc1)c1ccccc1` [tamoxifen]: the “results of studies in melanoma patients” value was “equivocal”.
